Read-outs that look alike come from different tables or passages of the source.

The record followed here is patent US12077503B2, “Substituted cyclic amides and their use as herbicides” (FMC CORPORATION, priority 2015, dated 2024).

What all share (type): in vivo
Assay [1] relates to Galium (catchweed bedstraw, Galium aparine). The experiment in a line: Test A postemergence. The conditions noted are these: Galium, post-emergence, 240 h; for pest or weed control at 125 g/ha: 125 g ai/ha, read-out: Galium plant response rating (0 to 100 scale); for pest or weed control at 500 g/ha: 500 g ai/ha. The method in brief: (§1)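 Visual injury, scored on a 0–100 scale relative to untreated controls, was recorded about 10 d after application. Treatments were a preemergence soil spray over planted seeds or a postemergence spray on plants at the one- to two-leaf stage, 2 to 10 cm tall, all in loam soil–sand blend in the greenhouse.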

The subject of another assay is Kochia (Kochia scoparia). Kind of assay: Test A postemergence. The settings on record: Bassia scoparia, post-emergence, 240 h; for pest or weed control at 125 g/ha: 125 g ai/ha, read-out: Kochia plant response rating (0 to 100 scale); for pest or weed control at 500 g/ha: 500 g ai/ha. The method in brief: as §1
Assay [2] relates to barnyardgrass (Echinochloa crus-galli). The experiment in a line: Test A postemergence. The settings on record: Echinochloa crus-galli, post-emergence, 240 h; for pest or weed control at 125 g/ha: 125 g ai/ha; for pest or weed control at 500 g/ha: 500 g ai/ha. The method in brief:
as §1

Assay [3] concerns blackgrass (Alopecurus myosuroides). The experiment in a line: Test A postemergence. The settings on record: Alopecurus myosuroides, post-emergence, 240 h; for pest or weed control at 125 g/ha: 125 g ai/ha, read-out: Blackgrass plant response rating (0 to 100 scale); for pest or weed control at 500 g/ha: 500 g ai/ha. The method in brief: as §1
The next assay has as its system corn (Zea mays). The experiment in a line: Test A postemergence. The conditions noted are these: Zea mays, post-emergence, 240 h; for plant injury at 125 g/ha: 125 g ai/ha, read-out: Corn plant response rating (0 to 100 scale). The method in brief:
as §1

Assay [4] has as its system giant foxtail (Setaria faberii). The experiment in a line: Test A postemergence. The conditions noted are these: Setaria faberi, post-emergence, 240 h; for pest or weed control at 125 g/ha: 125 g ai/ha, read-out: Foxtail, Giant plant response rating (0 to 100 scale); for pest or weed control at 500 g/ha: 500 g ai/ha. The method in brief: as §1
Assay [5] concerns pigweed (Amaranthus retroflexus). Kind of assay: Test A postemergence. The settings on record: Amaranthus retroflexus, post-emergence, 240 h; for pest or weed control at 125 g/ha: 125 g ai/ha, read-out: Pigweed plant response rating (0 to 100 scale); for pest or weed control at 500 g/ha: 500 g ai/ha. The method in brief:
as §1

Assay [6] deals with ragweed (common ragweed, Ambrosia elatior). Kind of assay: Test A postemergence. The settings on record: Ambrosia artemisiifolia, post-emergence, 240 h; for pest or weed control at 125 g/ha: 125 g ai/ha, read-out: Ragweed plant response rating (0 to 100 scale); for pest or weed control at 500 g/ha: 500 g ai/ha. The method in brief: as §1
Assay [7] relates to ryegrass, Italian (Italian ryegrass, Lolium multiflorum). The experiment in a line: Test A postemergence. The conditions noted are these: Lolium multiflorum, post-emergence, 240 h; for pest or weed control at 125 g/ha: 125 g ai/ha, read-out: Ryegrass, Italian plant response rating (0 to 100 scale); for pest or weed control at 500 g/ha: 500 g ai/ha. The method in brief:
as §1

The subject of assay [8] is wheat (Triticum aestivum). The experiment in a line: Test A postemergence. The conditions noted are these: Triticum aestivum, post-emergence, 240 h; for plant injury at 125 g/ha: 125 g ai/ha, read-out: Wheat plant response rating (0 to 100 scale); for plant injury at 500 g/ha: 500 g ai/ha. The method in brief: as §1
Assay [9] concerns barnyardgrass (Echinochloa crus-galli). Kind of assay: Test B flooded paddy test. The conditions noted are these: Echinochloa crus-galli, 250 g ai/ha, Flood; 0 to 100 scale where 0 is no effect and 100 is complete control; read-out: Barnyardgrass plant response rating. The method in brief: (§2)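 Percent control, visually estimated after 13–15 d in the greenhouse on a 0–100 basis, compares treated pots with untreated ones; compound was put into paddy water 3 cm above the soil when plants had two leaves.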

For assay [10], the system named is ducksalad (Heteranthera limosa). The experiment in a line: Test B flooded paddy test. The conditions noted are these: Heteranthera limosa, 250 g ai/ha, Flood; 0 to 100 scale where 0 is no effect and 100 is complete control; read-out: Ducksalad plant response rating. The method in brief:
as §2

For another assay, the system named is rice (Oryra sativa). Kind of assay: Test B flooded paddy test. The settings on record: Oryza sativa, 250 g ai/ha, Flood; 0 to 100 scale where 0 is no effect and 100 is complete control; read-out: Rice plant response rating. The method in brief:
as §2

The test system of assay [11] is sedge, umbrella (small-flower umbrella sedge, Cyperus difformis). Kind of assay: Test B flooded paddy test. The settings on record: Cyperus difformis, 250 g ai/ha, Flood. The method in brief:
as §2

Setting [12] is: postemergence, visual injury vs untreated controls after approx. 10 d, 0 = no effect, 100 = complete control.
Setting [13] is: Postemergence, visual rating about 10 d after treatment.

Turning to `CSc1ccccc1NC(=O)[C@H]1C(=O)N(C)CC[C@@H]1c1ccc(C(F)(F)F)cc1` [Compound 1227], the pest or weed control at 125 g/ha in [1] (setting [12]) amounted to 0%; in the assay with Kochia (Kochia scoparia) (setting [12]), 0%; in assay [2] (postemergence, visual injury vs untreated controls after approx. 10 d, 0 = no effect, 100 = complete control, read-out: Barnyardgrass plant response rating (0 to 100 scale)), 0%; in assay [3] (setting [12]), 0%; in assay [4] (setting [12]), 0%; in [5] (setting [12]) it was 20%. The pest or weed control at 125 g/ha in assay [6] (setting [12]) and in [7] (setting [12]) was 0% throughout. Moreover, the pest or weed control at 500 g/ha in [1] (postemergence, 0 to 100 scale, 0 is no effect, 100 is complete control, read-out: Galium plant response rating) was 0%; with Kochia (Kochia scoparia) (postemergence, 0 to 100 scale, 0 is no effect, 100 is complete control, read-out: Kochia plant response rating), 30%; in assay [2] (postemergence, 0 to 100 scale, 0 is no effect, 100 is complete control, read-out: Barnyardgrass plant response rating), 70%; in assay [3] (postemergence, 0 to 100 scale, 0 is no effect, 100 is complete control, read-out: Blackgrass plant response rating) it was 0%; in assay [4] (postemergence, 0 to 100 scale, 0 is no effect, 100 is complete control, read-out: Foxtail, Giant plant response rating), 0%; in assay [5] (postemergence, 0 to 100 scale, 0 is no effect, 100 is complete control, read-out: Pigweed plant response rating), 30%. For the same compound, the pest or weed control at 500 g/ha came out at 0% in assay [6] (postemergence, 0 to 100 scale, 0 is no effect, 100 is complete control, read-out: Ragweed plant response rating) and 0% in assay [7] (postemergence, 0 to 100 scale, 0 is no effect, 100 is complete control, read-out: Ryegrass, Italian plant response rating). Besides, the plant injury at 125 g/ha (with corn (Zea mays) (setting [12]); in assay [8] (setting [12])) was 0% each time. In addition, the plant injury at 500 g/ha stood at 0% with corn (Zea mays) (500 g ai/ha, postemergence, 0 to 100 scale, 0 is no effect, 100 is complete control, read-out: Corn plant response rating) and 0% in assay [8] (postemergence, 0 to 100 scale, 0 is no effect, 100 is complete control, read-out: Wheat plant response rating). Further, the pest or weed control at 250 g/ha worked out at 0% in [9]; 80% in [10]; 15% with rice (Oryra sativa); 0% in assay [11] (0 to 100 scale where 0 is no effect and 100 is complete control, read-out: Sedge, Umbrella plant response rating).

In the case of `CN1C[C@H](c2cccc(C(C)(F)F)c2)[C@@H](C(=O)Nc2ccc(F)cc2F)C1=O` [Compound 1319], the pest or weed control at 125 g/ha is 60% in assay [1] (setting [13]); 20% in the assay with Kochia (Kochia scoparia) (setting [13]); 90% in [2] (Postemergence, visual rating about 10 d after treatment, read-out: Barnyardgrass plant response rating (0 to 100 scale, 0 no effect, 100 complete control)); 70% in assay [3] (setting [13]); 90% in assay [4] (setting [13]); 0% in assay [5] (setting [13]). In addition, the pest or weed control at 125 g/ha was found to be 0% in [6] (setting [13]) and 40% in [7] (setting [13]). Also, the pest or weed control at 500 g/ha in assay [1] (Postemergence, visual injury, 0 to 100 scale (0 no effect, 100 complete control), approx. 10 d, read-out: Plant response rating, Galium) was 60%; with Kochia (Kochia scoparia) (Postemergence, visual injury, 0 to 100 scale (0 no effect, 100 complete control), approx. 10 d, read-out: Plant response rating, Kochia), 60%; in assay [2] (Postemergence, visual injury, 0 to 100 scale (0 no effect, 100 complete control), approx. 10 d, read-out: Plant response rating, Barnyardgrass), 90%; in assay [3] (Postemergence, visual injury, 0 to 100 scale (0 no effect, 100 complete control), approx. 10 d, read-out: Plant response rating, Blackgrass), 80%; in assay [4] (Postemergence, visual injury, 0 to 100 scale (0 no effect, 100 complete control), approx. 10 d, read-out: Plant response rating, Foxtail, Giant), 90%; in assay [5] (Postemergence, visual injury, 0 to 100 scale (0 no effect, 100 complete control), approx. 10 d, read-out: Plant response rating, Pigweed), 50%. For the same compound, the pest or weed control at 500 g/ha was 0% in assay [6] (Postemergence, visual injury, 0 to 100 scale (0 no effect, 100 complete control), approx. 10 d, read-out: Plant response rating, Ragweed) and 60% in assay [7] (Postemergence, visual injury, 0 to 100 scale (0 no effect, 100 complete control), approx. 10 d, read-out: Plant response rating, Ryegrass, Italian). Moreover, the plant injury at 125 g/ha amounted to 70% with corn (Zea mays) (setting [13]) and 60% in assay [8] (setting [13]). The compound further returned a Corn plant response rating (crop injury, 0 = no effect, 100 = complete kill) at 500 g/ha in the assay with corn (Zea mays) (Postemergence, 500 g ai/ha, visual injury, 0 to 100 scale (0 no effect, 100 complete control), approx. 10 d) of 80%. The plant injury at 500 g/ha in assay [8] (Postemergence, visual injury, 0 to 100 scale (0 no effect, 100 complete control), approx. 10 d, read-out: Plant response rating, Wheat) came to 60%. Moreover, the pest or weed control at 250 g/ha turned out to be 90% in assay [9]; 90% in assay [10]; 0% in the assay on rice (Oryra sativa); 0% in [11] (360 h, visually evaluated after 13 to 15 d, read-out: Plant response rating, Sedge, Umbrella (0 to 100 scale where 0 is no effect and 100 is complete control)).
